23 compounds from patent US20190119200A1, “TERTIARY AMIDES AND METHOD OF USE” (AbbVie Inc., priority 2016, published 2019) can be followed below.

Some results are limits rather than exact numbers.

The target in this assay is T1, LPAR1 (Homo sapiens, UniProt Q92633).
T1 construct: host or cells: U2OS
In words: LPAR1 FLIPR Assay. In kind it is cell-based. To be noted: U2OS cells stably expressing LPAR1, LPA (EC80), Calcium 6 FLIPR dye; for Emax: read-out: Maximum Inhibition. The procedure: U2OS cells stably expressing LPAR1 (Life Technologies #K1519A) were plated at 12000 cells/well in growth medium (McCoy's 5A medium(Life Technologies 16600-082)) with 10% dFBS (Life Technologies 26400-036), 0.1 mM non-essential amino acids, 25 mM HEPES, 1 mM sodium pyruvate, 1% penicillin/streptomycin, 50 μg/mL hygromycin, and 100 μg/mL Geneticin® in black-walled, clear-bottom 384-well plates (Corning #3683) and incubated in humidified 5% CO2 at 37° C. overnight. On the day of the assay, medium was removed and 30 μL of 5% Calcium 6 FLIPR dye in assay buffer-HBSS (Life Technologies #14025) containing 20 mM HEPES (Life Technologies #15630-080) was added to the cells. Cells were incubated at 37° C. in the dark for 2 hours. Compounds were 3-fold serial diluted from 10 mM for 11-points using dimethyl sulfoxide. 1 μL of compound in DMSO was diluted in 82.3 μL assay buffer immediately before the assay. Using a FLIPR® TETRA® system, 15 μL of the (4×) compound solutions were first added to the cells, then 15 μL of LPA (EC80) diluted in of assay buffer supplemented with 0.1% BSA was added 3 minutes later to activate the receptor. Changes in fluorescence were measured at wavelengths of 515-575 nm over the course of the experimental run. IC50 values were calculated from curve fits of the ratio data using a four-parameter logistic Hill equation (Assay Explorer 3.3 Client).

T1 sequence (Q92633 whole entry): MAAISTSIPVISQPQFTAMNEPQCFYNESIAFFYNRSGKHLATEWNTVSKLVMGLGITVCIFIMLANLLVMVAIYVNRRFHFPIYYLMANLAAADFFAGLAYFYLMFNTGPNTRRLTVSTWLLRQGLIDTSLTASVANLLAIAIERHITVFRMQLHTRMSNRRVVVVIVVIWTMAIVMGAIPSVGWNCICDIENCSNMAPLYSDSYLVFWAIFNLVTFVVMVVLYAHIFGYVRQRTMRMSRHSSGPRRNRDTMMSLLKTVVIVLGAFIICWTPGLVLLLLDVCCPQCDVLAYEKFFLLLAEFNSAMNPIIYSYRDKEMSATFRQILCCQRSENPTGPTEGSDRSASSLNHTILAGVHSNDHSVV

Regarding `COc1cc(C(=O)N(CCCCC(=O)O)CCCc2ccccc2)cc(OC)c1OCCO` [Example 88, 5-{[4-(2-hydroxyethoxy)-3,5-dimethoxybenzoyl](3-phenylpropyl)amino}pentanoic Acid], the IC50 is 293 nM and the Emax stood at 91%.
`COc1cc(C(=O)N(CCCc2ccccc2)CCSCC(=O)O)cc(OC)c1F` [Example 100, ({2-[(4-fluoro-3,5-dimethoxybenzoyl)(3-phenylpropyl)amino]ethyl}sulfanyl)acetic Acid]: the IC50 is > 30000 nM and the Emax is 60%.
The like results for `COc1cc(OC)cc(C(=O)N(CCCc2ccccc2)CCSCC(=O)O)c1` [Example 101, ({2-[(3,5-dimethoxybenzoyl)(3-phenylpropyl)amino]ethyl}sulfanyl)acetic Acid] were, in that order, 6950 nM and 59%.
In the same order, the values of `COc1ccc(C2(C(=O)N(CCCCC(=O)O)CCCc3ccccc3)CCCC2)cc1` [Example 106, 5-{[1-(4-methoxyphenyl)cyclopentane-1-carbonyl](3-phenylpropyl)amino}pentanoic Acid] are 766 nM and 55%.
The like results for `COc1cc(C(=O)N(CCCc2ccc(F)cc2F)CCSCC(=O)O)cc(OC)c1C` [Example 114, [(2-{[3-(2,4-difluorophenyl)propyl](3,5-dimethoxy-4-methylbenzoyl)amino}ethyl)sulfanyl]acetic Acid] were, in that order, 671 nM and 76%.
For the compound `COc1cc(C(=O)N(CCCc2ccc(F)cc2)CCSCC(=O)O)cc(OC)c1C` [Example 118, [(2-{(3,5-dimethoxy-4-methylbenzoyl)[3-(4-fluorophenyl)propyl]amino}ethyl)sulfanyl]acetic Acid], the IC50 came to 247 nM and the Emax was found to be 78%.
Regarding `COc1cc(C(=O)N(C/C=C/CC(=O)O)CCCc2ccccc2)cc(OC)c1C` [Example 121, (3E)-5-[(3,5-dimethoxy-4-methylbenzoyl)(3-phenylpropyl)amino]pent-3-enoic Acid], the IC50 is 503 nM and the Emax turned out to be 86%.
The like results for `COc1cc(C(=O)N(CCCCC(=O)NS(=O)(=O)c2ccc(F)cc2)CCCc2ccccc2)cc(OC)c1C` [Example 140, N-{5-[(4-fluorobenzene-1-sulfonyl)amino]-5-oxopentyl}-3,5-dimethoxy-4-methyl-N-(3-phenylpropyl)benzamide] were, in that order, 143 nM and 89%.
For `CCOC1CC1(C(=O)N(CCCCC(=O)O)CCCc1ccccc1)c1ccc(OC)cc1` (stereo not shown) [Example 149, 5-{[2-ethoxy-1-(4-methoxyphenyl)cyclopropane-1-carbonyl](3-phenylpropyl)amino}pentanoic Acid], the IC50 was 838 nM and the Emax worked out at 72%.
In the same order, the values of `COc1cc(C(=O)N(CCCCC(=O)O)[C@H](C)CCc2ccccc2)cc(OC)c1C` [Example 153, 5-{(3,5-dimethoxy-4-methylbenzoyl)[(2R)-4-phenylbutan-2-yl]amino}pentanoic Acid] are 127 nM and 83%.
The like results for `COc1cc(C(=O)N(CCCCC(=O)O)[C@@H](C)CCc2ccccc2)cc(OC)c1C` [Example 154, 5-{(3,5-dimethoxy-4-methylbenzoyl) [(2S)-4-phenylbutan-2-yl]amino}pentanoic Acid] were, in that order, 225 nM and 69%.
Take `COc1cc(C(=O)N(CCCc2ccccc2)CCOC(C)(C)C(=O)NS(C)(=O)=O)cc(OC)c1C` [Example 156, N-[2-({1-[(methanesulfonyl)amino]-2-methyl-1-oxopropan-2-yl}oxy)ethyl]-3,5-dimethoxy-4-methyl-N-(3-phenylpropyl)benzamide]: the IC50 worked out at 21 nM and the Emax is 99%.
With `COc1ccc(C2(C(=O)N(CCCCC(=O)O)CCCc3ccccc3)CC(OC)C2)cc1` (stereo not drawn) [Example 158, 5-{[cis-3-methoxy-1-(4-methoxyphenyl)cyclobutane-1-carbonyl](3-phenylpropyl)amino}pentanoic Acid], the IC50 amounted to 511 nM and the “Maximum Inhibition” value stood at 98%.
The like results for `COc1ccc(C2(C(=O)N(CCCCC(=O)O)CCCc3ccccc3)CC(OC)C2)cc1` (stereo not drawn) [Example 159, 5-{[trans-3-methoxy-1-(4-methoxyphenyl)cyclobutane-1-carbonyl](3-phenylpropyl)amino}pentanoic Acid] were, in that order, 302 nM and 85%.
On to `Cc1nc2c(C(=O)N(CCCCC(=O)O)CCCc3ccccc3)cccc2c(=O)[nH]1` [Example 160, 5-[(2-methyl-4-oxo-3,4-dihydroquinazoline-8-carbonyl)(3-phenylpropyl)amino]pentanoic Acid], for which the IC50 was found to be 8020 nM and the Emax turned out to be 63%.
The like results for `COc1cc(C(=O)N(CCCCC(=O)O)CCCc2ccccc2)nc(OC)n1` [Example 163, 5-[(2,6-dimethoxypyrimidine-4-carbonyl)(3-phenylpropyl)amino]pentanoic Acid] were, in that order, 244 nM and 57%.
In the same order, the values of `COc1cc(C(=O)N(CCCc2ccccc2)C(C)CCCC(=O)O)cc(OC)c1C` (stereo not shown) [Example 164, 5-[(3,5-dimethoxy-4-methylbenzoyl)(3-phenylpropyl)amino]hexanoic Acid] are 237 nM and 76%.
In the same order, the values of `O=C(O)CCCCN(CCCc1ccccc1)C(=O)C1CC(=O)Nc2ccc(F)cc21` (stereo not shown) [Example 168, 5-[(6-fluoro-2-oxo-1,2,3,4-tetrahydroquinoline-4-carbonyl)(3-phenylpropyl)amino]pentanoic Acid] are 1100 nM and 62%.
On to `Cn1cc(C(=O)N(CCCCC(=O)O)CCCc2ccccc2)c2ccccc2c1=O` [Example 169, 5-[(2-methyl-1-oxo-1,2-dihydroisoquinoline-4-carbonyl)(3-phenylpropyl)amino]pentanoic Acid], for which the IC50 was found to be 3090 nM and the Emax worked out at 71%.
In the same order, the values of `Cc1cc(C(=O)N(CCCCC(=O)O)CCCc2ccccc2)c2c(C)noc2n1` [Example 172, 5-[(3,6-dimethyl[1,2]oxazolo[5,4-b]pyridine-4-carbonyl)(3-phenylpropyl)amino]pentanoic Acid] are 1460 nM and 63%.
For the compound `COc1cc(C(=O)N(CCCCC(=O)O)CCCc2ccc(C)o2)cc(OC)c1C(F)(F)F` [Example 177, 5-{[3,5-dimethoxy-4-(trifluoromethyl)benzoyl][3-(5-methylfuran-2-yl)propyl]amino}pentanoic Acid], the IC50 came out at 235 nM and the Emax amounted to 57%.
In the same order, the values of `COc1cc(C(=O)N(CCCc2ccccc2)C[C@H]2CCC(=O)O2)cc(OC)c1C` [Example 181, 3,5-dimethoxy-4-methyl-N-{[(2R)-5-oxooxolan-2-yl]methyl}-N-(3-phenylpropyl)benzamide] are 486 nM and 80%.
As to `COc1cc(C(=O)N(CCCc2ccccc2)CCOC(=O)NS(=O)(=O)c2ccc(F)cc2)cc(OC)c1C` [Example 183, 2-[(3,5-dimethoxy-4-methylbenzoyl)(3-phenylpropyl)amino]ethyl (4-fluorobenzene-1-sulfonyl)carbamate], the IC50 is > 10000 nM and the Emax stood at 30%.

One may read the IC50 as the concentration that inhibits the measured activity by half.
